Experimental data taken from patent US20090270398A1, “Compounds, Compositions and Methods Comprising Pyridazine Derivatives” (Institute for OneWorld Health, priority 2008, published 2009).

Experiments:
[1] = system: cholera toxin (CTX)-induced net fluid secretion in intestinal loops; format: in vivo, mice (CD1 strain); settings: 4 hours
CFTR = molecular target: T1, CFTR (Homo sapiens, UniProt P13569); experiment: T84 assay (FLIPR membrane potential, forskolin/IBMX-stimulated CFTR channel activity); format: cell-based; settings: average of at least 2 runs unless annotated n = 1
T1 construct: results in the phosphorylation and opening of CFTR anion channels
T1 sequence (P13569 whole entry): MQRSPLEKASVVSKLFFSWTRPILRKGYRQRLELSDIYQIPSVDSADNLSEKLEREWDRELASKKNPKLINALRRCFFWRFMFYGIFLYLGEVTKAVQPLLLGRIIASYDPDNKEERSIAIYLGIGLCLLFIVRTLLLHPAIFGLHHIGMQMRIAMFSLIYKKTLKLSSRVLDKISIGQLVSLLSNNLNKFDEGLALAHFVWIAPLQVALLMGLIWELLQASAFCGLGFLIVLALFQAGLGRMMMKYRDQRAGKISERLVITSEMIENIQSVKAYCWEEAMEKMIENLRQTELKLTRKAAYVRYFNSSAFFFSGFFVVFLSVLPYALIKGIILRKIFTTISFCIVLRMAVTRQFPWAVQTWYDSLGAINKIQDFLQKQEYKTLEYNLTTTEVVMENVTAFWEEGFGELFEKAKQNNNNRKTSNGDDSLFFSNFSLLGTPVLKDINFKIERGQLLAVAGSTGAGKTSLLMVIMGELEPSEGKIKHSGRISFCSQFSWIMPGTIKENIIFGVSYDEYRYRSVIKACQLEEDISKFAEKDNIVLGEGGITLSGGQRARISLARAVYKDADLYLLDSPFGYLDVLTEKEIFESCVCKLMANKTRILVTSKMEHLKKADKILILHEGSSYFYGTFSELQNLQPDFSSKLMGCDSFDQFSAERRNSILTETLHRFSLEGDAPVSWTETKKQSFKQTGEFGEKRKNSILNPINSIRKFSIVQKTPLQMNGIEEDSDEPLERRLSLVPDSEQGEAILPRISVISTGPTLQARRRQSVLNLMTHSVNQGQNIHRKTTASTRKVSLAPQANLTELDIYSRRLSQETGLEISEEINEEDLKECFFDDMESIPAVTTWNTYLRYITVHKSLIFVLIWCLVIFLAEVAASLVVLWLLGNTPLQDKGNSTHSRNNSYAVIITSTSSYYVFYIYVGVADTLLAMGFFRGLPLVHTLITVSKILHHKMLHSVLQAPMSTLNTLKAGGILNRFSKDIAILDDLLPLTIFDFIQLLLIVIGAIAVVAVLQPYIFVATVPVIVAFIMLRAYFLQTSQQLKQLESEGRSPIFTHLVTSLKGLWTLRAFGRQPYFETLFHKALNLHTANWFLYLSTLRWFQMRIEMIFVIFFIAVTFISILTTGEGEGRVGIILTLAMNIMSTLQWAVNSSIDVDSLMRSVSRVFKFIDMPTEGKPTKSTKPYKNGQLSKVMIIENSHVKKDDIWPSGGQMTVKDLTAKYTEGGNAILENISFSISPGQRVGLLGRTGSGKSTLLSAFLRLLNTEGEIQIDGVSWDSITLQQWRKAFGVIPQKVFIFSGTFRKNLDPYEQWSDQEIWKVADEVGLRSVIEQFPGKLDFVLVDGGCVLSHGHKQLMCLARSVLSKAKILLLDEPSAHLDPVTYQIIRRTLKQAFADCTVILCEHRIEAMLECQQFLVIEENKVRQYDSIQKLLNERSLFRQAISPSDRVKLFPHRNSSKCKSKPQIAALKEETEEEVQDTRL
Protocol: (§1) For example, Human colonic T84 cells can be acquired from the European Collection of Cell Cultures (ECACC) and grown in standard culture conditions as described by the supplier. On the day before assay 25,000 T84 cells per well are plated into standard black walled, clear bottom 384-well assay plates in standard growth medium consisting of DMEM:F12 with 10% FBS and incubated overnight. On the day of the assay the plates are washed using a standard assay buffer (HBSS with 10 mM Hepes) and incubated for 15 minutes in serum free cell culture medium before the addition of a commercially available membrane potential sensitive fluorescent dye (FLIPR Red membrane potential dye, Molecular Devices Corporation). T84 cells are incubated with the FLIPR Red membrane potential dye for 45 minutes in the presence and absence of test compound before being transferred to a commercially available fluorescence imaging plate reader (FLIPR384, Molecular Devices Corporation). Fluorescence levels are monitored continuously every second for 150 seconds; after an initial 10 second baseline, CFTR channel activity is stimulated through the addition of 10 μM forskolin in the presence of 100 μM of the phosphodiesterase inhibitor iso-butyl-methylxanthine (IBMX). Addition of the forskolin leads to the activation of intracellular adenylyl cylase 1, elevating cAMP levels and results in the phosphorylation and opening of CFTR anion channels. CFTR channel opening causes chloride ion efflux and subsequent depolarization of the cells, which is measured by an increase in fluorescence. CFTR inhibitor compounds prevent cell depolarization and the associated increase in fluorescence.
as §1, with “Human colonic” for “For example, Human colonic”, “T84 cells are acquired from” for “T84 cells can be acquired from”, “(ECACC) and are grown in” for “(ECACC) and grown in”
Unless otherwise indicated, the IC50 values are reported as an average of at least 2 runs. Where only 1 run is used, this is indicated by the annotation “n=1.”

| SMILES | closed loop % inhibition @ 100 μg [1] [%] | IC50 (CFTR) [nM] |
| --- | --- | --- |
| OCCN(Cc1ccccc1)c1ccc(-c2cc(Cl)c(O)c(Cl)c2)nn1 [Compound 98, 4-(6-(benzyl(2-hydroxyethyl)amino)pyridazin-3-yl)-2,6-dichlorophenol] | 67.0 | 630 |
| CCN(Cc1ccccc1)c1ccc(-c2cc(Cl)c(O)c(Cl)c2)nn1 [Compound 115, 4-(6-(benzyl(ethyl)amino)pyridazin-3-yl)-2,6-dichlorophenol] | 79.4 | 10 |
| CN(Cc1cccnc1)c1ccc(-c2cc(Cl)c(O)c(Cl)c2)nn1 [Compound 124, 2,6-dichloro-4-(6-(methyl(pyridin-3-ylmethyl)amino)pyridazin-3-yl)phenol] |  | 1650 |
| CN(Cc1cccc(Oc2ccccn2)c1)c1ccc(-c2cc(Cl)c(O)c(Cl)c2)nn1 [Compound 120, 2,6-dichloro-4-(6-(methyl(3-(pyridin-2-yloxy)benzyl)amino)pyridazin-3-yl)phenol] |  | 1710 |
| Oc1c(Cl)cc(-c2ccc(N3CCN(c4cccc(F)c4)CC3)nn2)cc1Cl [Compound 135, 2,6-dichloro-4-(6-(4-(3-fluorophenyl)piperazin-1-yl)pyridazin-3-yl)phenol] |  | 19600 |
| CN(C)CCCOc1ccc(CN2CCC(COc3ccc(-c4cc(Cl)c(O)c(Cl)c4)nn3)(c3ccccc3)CC2)cc1 [Compound 107, 2,6-dichloro-4-(6-((1-(4-(3-(dimethylamino)propoxy)benzyl)-4-phenylpiperidin-4-yl)methoxy)pyridazin-3-yl)phenol] |  | 2850 |
| CC(C)(C)OC(=O)N1CCC(COc2ccc(-c3cc(Cl)c(O)c(Cl)c3)nn2)(c2ccccc2)CC1 [Compound 101, tert-butyl 4-((6-(3,5-dichloro-4-hydroxyphenyl)pyridazin-3-yloxy)methyl)-4-phenylpiperidine-1-carboxylate] |  | 12700 |
| Oc1c(Br)cc(-c2ccc(OCCc3ccc(Cl)cc3)nn2)cc1Br [Compound 92, 2,6-dibromo-4-(6-(4-chlorophenethoxy)pyridazin-3-yl)phenol] |  | 3380 |
| Oc1c(Br)cc(-c2ccc(OCc3cccc(Cl)c3Cl)nn2)cc1Br [Compound 99, 2,6-dibromo-4-(6-(2,3-dichlorobenzyloxy)pyridazin-3-yl)phenol] |  | 12400 |
| Oc1c(Cl)cc(-c2ccc(OCCc3cccc(Cl)c3)nn2)cc1Cl [Compound 104, 2,6-dichloro-4-(6-(3-chlorophenethoxy)pyridazin-3-yl)phenol] |  | 10400 |
| COc1ccc(CN(CCO)c2ccc(-c3cc(Cl)c(O)c(Cl)c3)nn2)cc1OC [Compound 134, 2,6-dichloro-4-(6-((3,4-dimethoxybenzyl)(2-hydroxyethyl)amino)pyridazin-3-yl)phenol] |  | 6900 |
| CCN(Cc1cccc(F)c1)c1ccc(-c2cc(Cl)c(O)c(Cl)c2)nn1 [Compound 127, 2,6-dichloro-4-(6-(ethyl(3-fluorobenzyl)amino)pyridazin-3-yl)phenol] |  | 30 |
| Oc1c(Br)cc(-c2ccc(OCc3cccc4ccccc34)nn2)cc1Br [Compound 95, 2,6-dibromo-4-(6-(naphthalen-1-ylmethoxy)pyridazin-3-yl)phenol] |  | 7900 |
| CCOc1ccc(CN(CC)c2ccc(-c3cc(Cl)c(O)c(Cl)c3)nn2)cc1OC [Compound 129, 2,6-dichloro-4-(6-((4-ethoxy-3-methoxybenzyl)(ethyl)amino)pyridazin-3-yl)phenol] |  | 1160 |
| OCCN(Cc1cccc(Cl)c1Cl)c1ccc(-c2cc(Cl)c(O)c(Cl)c2)nn1 [Compound 123, 2,6-dichloro-4-(6-((2,3-dichlorobenzyl)(2-hydroxyethyl)amino)pyridazin-3-yl)phenol] |  | 1410 |
| Oc1c(Cl)cc(-c2ccc(OCC3(c4ccccc4)CCN(Cc4ccc(Cl)nc4)CC3)nn2)cc1Cl [Compound 108, 2,6-dichloro-4-(6-((1-((6-chloropyridin-3-yl)methyl)-4-phenylpiperidin-4-yl)methoxy)pyridazin-3-yl)phenol] |  | 630 |
